Target: T1, HPK1 (Homo sapiens, UniProt Q92918)
T1 construct: purchased Invitrogen
Assay: HPK1 biochemical enzyme assay (microfluidic mobility shift, Caliper)
Settings: 1.5 nM HPK1 (Invitrogen), 1 mM ATP, 30 min preincubation, 60 min at RT, top concentration 3 μM; read-out: HPK1 1000UMATP caliper IC50
Method: Example 20. HPK1 Biochemical Enzyme Assay
HPK1 biochemical enzyme assay: HPK1 enzyme inhibition was measured using a microfluidic mobility shift assay. Reactions were performed in a 384-well plate, containing 1.5 nM HPK1 (Invitrogen), in assay buffer (Cama Biosciences; pH 7.4). Test compounds were titrated in ten point curves (top final assay concentration 3 μM), and preincubated with enzyme/substrate mix for 30 min prior to initiation of the reaction by addition of ATP (1 mM final concentration) and substrate (1 μM final concentration; Carna Biosciences) diluted in assay buffer supplemented by MgCl2 (final assay concentration of 5 mM). Following 60 min incubation at RT, the reaction was terminated by addition of 60 μl/well termination buffer (Carna Biosciences) and signal determination using a Caliper EZ Reader (Perkin Elmer, UK).

T1 sequence (Q92918 whole entry): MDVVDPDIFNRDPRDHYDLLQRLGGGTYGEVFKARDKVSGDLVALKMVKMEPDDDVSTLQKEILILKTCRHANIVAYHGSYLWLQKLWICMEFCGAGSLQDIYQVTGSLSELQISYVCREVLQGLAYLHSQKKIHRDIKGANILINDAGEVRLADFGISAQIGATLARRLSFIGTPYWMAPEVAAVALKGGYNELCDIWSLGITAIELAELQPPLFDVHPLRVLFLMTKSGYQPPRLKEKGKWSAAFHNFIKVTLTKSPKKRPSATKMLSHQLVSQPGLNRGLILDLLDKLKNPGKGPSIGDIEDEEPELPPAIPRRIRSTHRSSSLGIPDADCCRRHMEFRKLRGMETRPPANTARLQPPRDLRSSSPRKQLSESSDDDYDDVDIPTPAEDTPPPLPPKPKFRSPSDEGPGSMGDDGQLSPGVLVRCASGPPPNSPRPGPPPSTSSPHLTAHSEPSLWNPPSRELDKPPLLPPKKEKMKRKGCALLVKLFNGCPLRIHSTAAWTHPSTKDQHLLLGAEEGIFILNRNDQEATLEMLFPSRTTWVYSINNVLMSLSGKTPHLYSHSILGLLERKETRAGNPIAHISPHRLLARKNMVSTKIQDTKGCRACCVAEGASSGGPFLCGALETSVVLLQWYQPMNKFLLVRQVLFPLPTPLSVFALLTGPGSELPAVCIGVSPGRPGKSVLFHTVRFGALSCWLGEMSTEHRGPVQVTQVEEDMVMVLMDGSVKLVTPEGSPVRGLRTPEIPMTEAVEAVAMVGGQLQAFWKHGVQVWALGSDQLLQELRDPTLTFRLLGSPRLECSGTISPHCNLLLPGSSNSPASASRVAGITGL

IC50	SMILES
< 1 µM	CNc1cc(-c2ncc(Nc3ccc(N4CCN(C)CC4)cn3)c3c2CNC3=O)ccn1 [Compound I-56, 4-(2-(methylamino)pyridin-4-yl)-7-((5-(4-methylpiperazin-1-yl)pyridin-2-yl)amino)-2,3-dihydro-1H-pyrrolo[3,4-c]pyridin-1-one]
< 1 µM	CN1CCN(c2ccc(Nc3ccc(-c4ccnc(N5CCCCC5)c4)c4c3C(=O)NC4)nc2)CC1 [Compound I-34, 7-[[5-(4-methylpiperazin-1-yl)-2-pyridyl]amino]-4-[2-(1-piperidyl)-4-pyridyl] isoindolin-1-one]
< 1 µM	O=C1NCc2c(-c3ccncc3)ccc(Nc3ccc(N4CCC(O)CC4)cn3)c21 [Compound I-28, 7-[[5-(4-hydroxy-1-piperidyl)-2-pyridyl]amino]-4-(4-pyridyl) isoindolin-1-one]
1 to 5 µM	CN1CCN(c2ccc(Nc3ccc(-c4ccnc(C5CCOCC5)n4)c4c3C(=O)NC4)nc2)CC1 [Compound I-62, 7-((5-(4-methylpiperazin-1-yl)pyridin-2-yl)amino)-4-(2-(tetrahydro-2H-pyran-4-yl)pyrimidin-4-yl)isoindolin-1-one]
1 to 5 µM	O=C1NCc2c(-n3ccnc3)ccc(Nc3ccc(N4CCNCC4)cn3)c21 [Compound I-81, 4-(1H-imidazol-1-yl)-7-((5-(piperazin-1-yl)pyridin-2-yl)amino) isoindolin-1-one]
< 1 µM	O=C1NCc2c(-c3cncn3-c3ccccc3)ccc(Nc3ccc(N4CCNCC4)cn3)c21 [Compound I-75, 4-(1-phenyl-1H-imidazol-5-yl)-7-((5-(piperazin-1-yl)pyridin-2-yl)amino) isoindolin-1-one]
< 1 µM	Cn1c(-c2ccc(Nc3ccc(N4CCNCC4)cn3)c3c2CNC3=O)cnc1-c1ccccc1 [Compound I-78, 4-(1-methyl-2-phenyl-1H-imidazol-5-yl)-7-((5-(piperazin-1-yl)pyridin-2-yl)amino) isoindolin-1-one]
1 to 5 µM	Cn1cc(-c2ccc(Nc3ccc(N4CCNCC4)cn3)c3c2CNC3=O)nc1-c1ccccc1 [Compound I-88, 4-(1-methyl-2-phenyl-1H-imidazol-4-yl)-7-((5-(piperazin-1-yl)pyridin-2-yl)amino) isoindolin-1-one]
< 1 µM	Cn1cncc1-c1ccc(Nc2ccc(N3CCNCC3)cn2)c2c1CNC2=O [Compound I-71, 4-(1-methyl-1H-imidazol-5-yl)-7-((5-(piperazin-1-yl)pyridin-2-yl)amino) isoindolin-1-one]

Further lines, the compound ahead of its results:

SMILES	IC50
O=C1NCc2c(-c3cnco3)ncc(Nc3ccc(N4CCNCC4)cn3)c21 [Compound I-18, 4-oxazol-5-yl-7-[(5-piperazin-1-yl-2-pyridyl)amino]-2,3-dihydropyrrolo [3,4-c]pyridin-1-one]	1 to 5 µM
O=C1NCc2c(N3CCOCC3)ncc(Nc3ccc(N4CCNCC4)cn3)c21 [Compound I-16, 4-morpholino-7-[(5-piperazin-1-yl-2-pyridyl)amino]-2,3-dihydropyrrolo [3,4-c]pyridin-1-one]	1 to 5 µM
COc1ccc(-c2ncc(Nc3ccc(N4CCNCC4)cn3)c3c2CNC3=O)cc1 [Compound I-6, 4-(4-methoxyphenyl)-7-[(5-piperazin-1-yl-2-pyridyl)amino]-2,3-dihydropyrrolo [3,4-c]pyridin-1-one]	1 to 5 µM
COc1cccc(-c2ncc(Nc3ccc(N4CCNCC4)cn3)c3c2CNC3=O)c1OC [Compound I-20, 4-(2,3-dimethoxyphenyl)-7-[(5-piperazin-1-yl-2-pyridyl)amino]-2,3-dihydropyrrolo [3,4-c]pyridin-1-one]	1 to 5 µM
CN1CCN(c2ccc(Nc3cnc(-c4ccncc4F)c4c3C(=O)NC4)nc2)CC1 [Compound I-22, 4-(3-fluoro-4-pyridyl)-7-[[5-(4-methylpiperazin-1-yl)-2-pyridyl]amino]-2,3-dihydropyrrolo [3,4-c]pyridin-1-one]	1 to 5 µM
O=C1NCc2c(-c3ncco3)ncc(Nc3ccc(N4CCNCC4)cn3)c21 [Compound I-10, 4-oxazol-2-yl-7-[(5-piperazin-1-yl-2-pyridyl)amino]-2,3-dihydropyrrolo [3,4-c]pyridin-1-one]	1 to 5 µM
